Results published in ChEMBL document CHEMBL4602704, “Discovery and Optimization of Glucose Uptake Inhibitors” (J Med Chem, 2020).
Converted amounts (≈) assume the structure as drawn.

Tests used:
physchem [1] = settings: phosphate buffered saline, pH 2
in vivo [2] = settings: rat
in vitro [3] = settings: mouse, plasma
in vivo [4] = settings: mouse, iv, 10 mg/kg
in vivo [5] = settings: mouse, po, 30 mg/kg
in vivo [6] = settings: mouse, po, 30 mg/kg; remark: listed apart in the source
in vivo [7] = settings: mouse
in vitro [8] = settings: human, Caco-2
in vitro [9] = settings: human, Caco-2; remark: listed apart in the source
in vitro [10] = settings: human, liver microsomes
in vivo [11] = settings: rat, po, 30 mg/kg
in vivo [12] = settings: rat, iv, 10 mg/kg
in vitro [13] = settings: dog, liver microsomes
physchem [14] = settings: phosphate buffered saline, pH 4.5
in vivo [15] = settings: dog, po, 10 mg/kg
in vivo [16] = settings: rat, iv, 10 mg/kg; remark: listed apart in the source
in vivo [17] = settings: rat, po, 30 mg/kg; remark: listed apart in the source
in vivo [18] = settings: mouse, iv, 10 mg/kg; remark: listed apart in the source
in vivo [19] = settings: rat, po, 30 mg/kg; remark: listed apart in the source
in vitro [20] = settings: mouse, liver microsomes
in vivo [21] = settings: mouse, po, 30 mg/kg; remark: listed apart in the source
in vivo [22] = settings: mouse, brain and plasma, po, 30 mg/kg
in vitro [23] = settings: rat, liver microsomes
physchem [24] = settings: phosphate buffered saline, pH 6.8
in vivo [25] = settings: CD-1, mouse, brain, po, 100 mg/kg
in vivo [26] = settings: dog, po, 10 mg/kg; remark: listed apart in the source
[27] = Apparent permeability in human Caco2 cells; assay type: ADME, cell-based; settings: Caco-2

Compound `CC1(NC(=O)COc2cccc(-c3nc4c(c(Nc5ccc(-c6cn[nH]c6)cc5)n3)CN(C3CCC3)CC4)c2)CC1` has a solubility (physchem [1]) of 291 µM (≈ 160 µg/mL), a half-life (in vivo [2]) of 2.59 h and a remaining at 18 h (in vitro [3]) greater than 95%. It also gave a clearance (in vivo [4]) of 40 mL/min/kg, an AUC (in vivo [5]) of 5890 ng·h/mL and a Cmax (in vivo [6]) of 2520 ng/mL. For the same compound, the half-life (in vivo [7]) was 0.785 h, the Papp B→A at 5 µM (in vitro [8]) was 4.33 ×10⁻⁶ cm/s and the Papp A→B at 5 µM (in vitro [9]) was 11.2 ×10⁻⁶ cm/s. For the same compound, the half-life (in vitro [10]) was 1.93 h, the bioavailability (in vivo [11]) was 49.4% and the clearance (in vivo [12]) was 37 mL/min/kg. It also gave a half-life (in vitro [13]) of 0.967 h, a solubility (physchem [14]) of 256 µM (≈ 141 µg/mL) and a bioavailability (in vivo [15]) of 29%. The Vd (in vivo [16]) was 4.51 L/kg, the Cmax (in vivo [17]) was 1680 ng/mL and the Vd (in vivo [18]) was 1.7 L/kg. The AUC (in vivo [19]) was 6810 ng·h/mL, the half-life at 2 µM (in vitro [20]) was 1.17 h and the bioavailability (in vivo [21]) was 45.4%. For the same compound, the Kp at 2 h (in vivo [22]) was 0.05, the half-life at 2 µM (in vitro [23]) was 1.05 h and the solubility (physchem [24]) was 1.4 µM (≈ 0.77 µg/mL). It also gave a Kp at 1 h (in vivo [25]) of 0.05 and a bioavailability (in vivo [26]) of 19%.

With `CCOc1ccc2nc(-c3cccc(OCC(=O)NC(C)C)c3)nc(Nc3ccc(-c4cn[nH]c4)cc3)c2c1` the solubility (physchem [1]) was 3.36 µM (≈ 1.76 µg/mL), the Papp [27] was 2 ×10⁻⁶ cm/s and the solubility (physchem [14]) was 0.01 µM (≈ 0.00523 µg/mL). For the same compound, the solubility (physchem [24]) was 0.03 µM (≈ 0.0157 µg/mL).

`CC(C)(C)NC(=O)COc1cccc(-c2nc3c(c(Nc4ccc(-c5cn[nH]c5)cc4)n2)CN(C2CCC2)CC3)c1` showed a Papp B→A at 5 µM (in vitro [8]) of 6.09 ×10⁻⁶ cm/s, a Papp A→B at 5 µM (in vitro [9]) of 4.58 ×10⁻⁶ cm/s and a Kp at 1 h (in vivo [25]) of 0.1.
